Measurements taken from article PMC12169475 (ACS Medicinal Chemistry Letters, 2025).

How the values were obtained:
[1] = system: A. baumannii NICD 15283 (C); parameters: key: S - Susceptible; R - Resistant; I – Intermediate; conditions: A. baumannii NICD 15283 clinical isolate; ref NICD; cited from earlier work
[2] = system: E. cloacae NICD 16103 (C); parameters: key: S - Susceptible; R - Resistant; I – Intermediate; conditions: E. cloacae NICD 16103 clinical isolate; ref NICD; cited from earlier work
[3] = system: E. coli ATCC 700928; conditions: E. coli ATCC 700928; cation-adjusted MHB, ~5 x 10^5 CFU/mL, 37°C 20 h, OD600; n = 6
Description: (§1) Antibacterial activity against a panel of standard laboratory strains and clinical isolates.
(§2) Antimicrobial activity was evaluated against a panel of Gram-negative bacteria maintained by H3D, University of Cape Town, consisting of six laboratory reference strains and two clinical isolates. Briefly, bacterial colonies from an LB agar plate were picked and cultured in cation-adjusted Mueller Hinton broth (MHB) at 37°C with 180 rpm shaking, overnight. Cultures were […]
(§3) back diluted to reach a starting optical density at 600 nm (OD600) of 0.1 and then diluted 100- […]
(§4) media down polypropylene 96-well plates. Inoculum was added at a 1:1 ratio resulting in a […]
(§5) (Suppl. Table S2). Plates were incubated at 37°C for 20 h and the OD600 determined. Minimum inhibition concentrations (MICs) were determined from a minimum of three biological repeats. […]
(§6) the background absorbance.
(§7) Caution! All bacterial work was conducted using appropriate biosafety level 2 (BSL-2) practices.
(§8) Clinical isolates and reference strains were handled in a biosafety cabinet with proper PPE to prevent exposure and contamination.

[4] = system: K. pneumoniae ATCC BAA-1705; conditions: K. pneumoniae ATCC BAA-1705; cation-adjusted MHB, ~5 x 10^5 CFU/mL, 37°C 20 h, OD600; n = 6
Description: as §1, §2, §3, §4, §5, §6, §7, §8

[5] = system: P. aeruginosa PAO1; conditions: P. aeruginosa PAO1; cation-adjusted MHB, ~5 x 10^5 CFU/mL, 37°C 20 h, OD600; n = 6
Description: as §1, §2, §3, §4, §5, §6, §7, §8

[6] = system: E. coli ATCC 25922; conditions: E. coli ATCC 25922; cation-adjusted MHB, ~5 x 10^5 CFU/mL, 37°C 20 h, OD600; triplicate experiments in duplicate (n = 6)
Description: as §1, §2, §3, §4, §5, §6, §7

[7] = system: A. baumannii ATCC 19606; conditions: A. baumannii ATCC 19606; cation-adjusted MHB, ~5 x 10^5 CFU/mL, 37°C 20 h, OD600; n = 6
Description: as §1, §2, §3, §4, §5, §6, §7, §8

[8] = system: A. baumannii NICD 15283 (C); conditions: A. baumannii NICD 15283 clinical isolate; cation-adjusted MHB, ~5 x 10^5 CFU/mL, 37°C 20 h, OD600; n = 6
Description: as §1, §2, §3, §4, §5, §6, §7, §8

[9] = system: E. cloacae ATCC 700323; conditions: E. cloacae ATCC 700323; cation-adjusted MHB, ~5 x 10^5 CFU/mL, 37°C 20 h, OD600; n = 6
Description: as §1, §2, §3, §4, §5, §6, §7, §8

[10] = system: E. cloacae NICD 16103 (C); conditions: E. cloacae NICD 16103 clinical isolate; cation-adjusted MHB, ~5 x 10^5 CFU/mL, 37°C 20 h, OD600; n = 6
Description: as §1, §2, §3, §4, §5, §6, §7, §8

Compound	Antimicrobial susceptibility profile [1]	Antimicrobial susceptibility profile [2]	Modal MIC [3]	Modal MIC [4]	Modal MIC [5]	Modal MIC [6]	Modal MIC [7]	Modal MIC [8]	Modal MIC [9]	Modal MIC [10]
NCC[C@H](O)C(=O)N[C@@H]1C[C@H](N)[C@@H](O[C@H]2O[C@H](CN)[C@@H](O)[C@H](O)[C@H]2O)[C@H](O)[C@H]1O[C@H]1O[C@H](CO)[C@@H](O)[C@H](N)[C@H]1O [Amikacin]	R	S	–	–	–	–	–	–	–	–
O=C(O)c1cn(C2CC2)c2cc(N3CCNCC3)c(F)cc2c1=O [Ciprofloxacin, reference compound]	–	–	0.25 µg/mL	> 32 µg/mL	0.5 µg/mL	–	–	–	–	–
CNC(C)C1CCC(N)C(OC2C(N)CC(N)C(OC3OCC(C)(O)C(NC)C3O)C2O)O1 (stereo not drawn) [Gentamicin, reference compound]	R	R	0.5 µg/mL	1/2	4 µg/mL	0.5 µg/mL	32 µg/mL	16/32	2 µg/mL	> 32 µg/mL
C[C@@H](O)[C@H]1C(=O)N2C(C(=O)O)=C(SCCN=CN)C[C@H]12 [Imipenem]	R	R	–	–	–	–	–	–	–	–
CC[C@H](C)[C@H](NC(=O)CN)C(=O)NCC(=O)N[C@@H](C)C(=O)N[C@H](C(=O)N[C@@H](CC(C)C)C(=O)N[C@@H](CCCCN)C(=O)N[C@H](C(=O)N[C@@H](CC(C)C)C(=O)N[C@H](C(=O)N[C@H](C(=O)NCC(=O)N[C@@H](CC(C)C)C(=O)N1CCC[C@H]1C(=O)N[C@@H](C)C(=O)N[C@@H](CC(C)C)C(=O)N[C@H](C(=O)N[C@@H](CO)C(=O)N[C@@H](Cc1c[nH]c2ccccc12)C(=O)N[C@H](C(=O)N[C@@H](CCCCN)C(=O)N[C@@H](CCCNC(=N)N)C(=O)N[C@@H](CCCCN)C(=O)N[C@@H](CCCNC(=N)N)C(=O)N[C@@H](CCC(N)=O)C(=O)N[C@@H](CCC(N)=O)C(N)=O)[C@@H](C)CC)[C@@H](C)CC)[C@@H](C)O)[C@@H](C)O)C(C)C)C(C)C [Melittin, reference compound]	–	–	4 µg/mL	–	2 µg/mL	–	–	4 µg/mL	–	8 µg/mL
C[C@@H](O)[C@H]1C(=O)N2C(C(=O)O)=C(S[C@@H]3CN[C@H](C(=O)N(C)C)C3)[C@H](C)[C@H]12 [Meropenem, reference compound]	R	R	–	–	–	–	–	32 µg/mL	–	16 µg/mL
CC1(C)[C@H](C(=O)O)N2C(=O)C[C@H]2S1(=O)=O [Sulbactam]	I	R	–	–	–	–	–	–	–	–
